Among the test systems are HL-60(TB) leukemia; OVCAR-4 ovarian; LOX IMVI melanoma; SF-295 CNS; RXF 393 renal; MALME-3M melanoma; HCC-2998 colon; OVCAR-8 ovarian; NCI-H460 lung; U251 CNS.
Common to all, as to experiment: growth of human tumour cells (NCI), 48 h

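A five-concentration, 48-hour dose response in 96-well plates underlies each endpoint, interpolated linearly between surrounding concentrations. At the TGI there is no net growth.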

For the compound `C/C(=N/NC(=S)Nc1ccccc1Cl)c1cccc(/C(C)=N\NC(=S)Nc2ccccc2Cl)n1`, the TGI in the test with HL-60(TB) leukemia, in the test on OVCAR-4 ovarian, in the test with LOX IMVI melanoma, with SF-295 CNS, with RXF 393 renal and with MALME-3M melanoma was greater than 100 µM in each case. Moreover, the TGI with HCC-2998 colon is greater than 100 µM; in the test with OVCAR-8 ovarian, 81.8 µM; in the test with NCI-H460 lung, greater than 100 µM; in the test with U251 CNS, greater than 100 µM.
With `CN(C)c1ccc(/C=C2\N=C(NN)NC2=O)cc1`, the TGI with HL-60(TB) leukemia, in the test on OVCAR-4 ovarian, with LOX IMVI melanoma, in the test with SF-295 CNS, in the test with RXF 393 renal and in the test with MALME-3M melanoma was greater than 100 µM each time. For the same compound, the TGI in the test with HCC-2998 colon, in the test with OVCAR-8 ovarian, in the test on NCI-H460 lung and in the test on U251 CNS was greater than 100 µM each time.
With `Cc1nc2c(n1C(C)(C)C)C(=O)c1ccccc1C2=O`, the TGI in the test on HL-60(TB) leukemia, in the test with OVCAR-4 ovarian, in the test on LOX IMVI melanoma, in the test with SF-295 CNS, with RXF 393 renal and in the test with MALME-3M melanoma was greater than 100 µM each time. In addition, the TGI in the test on HCC-2998 colon, with OVCAR-8 ovarian, in the test on NCI-H460 lung and in the test on U251 CNS was greater than 100 µM throughout.
As for `N#Cc1c(SCc2ccccc2)nc(-c2ccccc2)[nH]c1=S`, the TGI is greater than 100 µM in the test on HL-60(TB) leukemia; greater than 100 µM in the test with OVCAR-4 ovarian; 63.9 µM with LOX IMVI melanoma; 55.1 µM in the test with SF-295 CNS; 44.9 µM in the test on RXF 393 renal; greater than 100 µM with MALME-3M melanoma. For the same compound, the TGI is 39.8 µM in the test on HCC-2998 colon, 76.7 µM in the test on OVCAR-8 ovarian, 51.4 µM in the test on NCI-H460 lung and 45.1 µM in the test with U251 CNS.
Consider `O=C1CSC(/C(=C\c2ccc(Cl)cc2)c2nc3ccccc3[nH]2)=N1`, for which the TGI was greater than 68.8 µM in the test with HL-60(TB) leukemia; 31.8 µM in the test on OVCAR-4 ovarian; 32.4 µM with LOX IMVI melanoma; 22.8 µM in the test with SF-295 CNS; 2.14 µM with RXF 393 renal; 31.6 µM in the test on MALME-3M melanoma. Further, the TGI was 17.7 µM with HCC-2998 colon, 32 µM in the test with OVCAR-8 ovarian, 32.2 µM in the test on NCI-H460 lung and 25.6 µM in the test on U251 CNS.
Turning to `CC(=O)N1CCc2c([nH]c3ccc(Br)cc23)C1c1ccccc1` (stereo not given), the TGI in the test with HL-60(TB) leukemia, with OVCAR-4 ovarian, in the test on LOX IMVI melanoma, in the test with SF-295 CNS, in the test with RXF 393 renal and with MALME-3M melanoma was greater than 10 µM each time. Also, the TGI in the test on HCC-2998 colon, with OVCAR-8 ovarian, with NCI-H460 lung and in the test with U251 CNS was greater than 10 µM each time.
